Measured values taken from publication PMC8230474, “Synthesis of Novel Acyl Derivatives of 3-(4,5,6,7-Tetrabromo-1H-benzimidazol-1-yl)propan-1-ols—Intracellular TBBi-Based CK2 Inhibitors with Proapoptotic Properties” (International Journal of Molecular Sciences, 2021).

Key:
[1] = target: human CK2 catalytic subunit (CK2α) (Homo sapiens, UniProt P68400); assay: Radiometric (P81 filter isotopic) kinase assay, CK2 catalytic subunit; format: biochemical; conditions: read-out: Residual Activity of the Enzyme CK2α; for remaining activity at 5 µM: 5 µM compound; for remaining activity at 10 µM: 10 µM compound
[2] = target: PIM1 (Homo sapiens, UniProt P11309); assay: Radiometric (P81 filter isotopic) kinase assay, PIM1; format: biochemical; conditions: read-out: Residual Activity of the Enzyme PIM1; for remaining activity at 5 µM: 5 µM compound; for remaining activity at 10 µM: 10 µM compound
[3] = tested on: MDA-MB-231 cells; assay: Annexin V-FITC/PI flow cytometry, MDA-MB-231; format: cell-based, human; conditions: compound at its EC50
Procedure: Similar to the results obtained for MCF-7 cells, compound 6b acted in MDA-MB-231 cells as an effective inducer of apoptosis with the amount of apoptotic cells equal to 31.5% and 49% after 24 h and 72 h of treatment, respectively.
(§1) MCF-7 cells were seeded in six-well plates at 1.5 × 10^5 cells/well. […] Then, the plates were incubated for 24 h or 72 h. After exposure to the examined compounds, the floating cells were collected, and monolayer cell culture was trypsinized. The cells were centrifugated at 200× g at 4 °C for 5 min, washed twice in cold phosphate-buffered saline (PBS), and subsequently suspended in binding buffer at 1 × 10^6 cells/mL. Subsequently, 100-μL aliquots of the cell suspension were labeled according to the kit manufacturer’s instructions. Briefly, annexin V-fluorescein isothiocyanate and propidium iodide (BD Biosciences, Pharmingen, San Diego, CA, USA) were added to the cell suspension, and the mixture was vortexed and then incubated for 15 min at RT in the dark. A cold binding buffer (900 μL) was then added and the cells were vortexed again and kept on ice. Flow cytometric measurements were performed within 1 h after labeling. Viable, necrotic, early, and late apoptotic cells were detected by flow cytometry using CyFlow Cube 8 (Sysmex, Norderstedt, Germany) flow cytometer.

[4] = tested on: MCF-7 cells; assay: Cell cycle progression by flow cytometry, MCF-7; format: cell-based, human; conditions: MCF-7, 72 h, compound at its EC50
[5] = tested on: protein kinase CK2 in MDA-MB-231 cells; assay: Intracellular inhibition of CK2, Western blot of p-Ser529 p65 and p-Ser129 Akt1, MDA-MB-231; format: cell-based, human; conditions: MDA-MB-231, 24 h treatment, compound at its 72-h EC50, relative to untreated control
Source text: We observed an inhibition of CK2 in both cell lines; however, the lower efficiency of CK2 inhibition was detected in MCF-7 considering the extent of Akt1 phosphorylation. The relative level of the phosphorylation of the tested proteins in MDA-MB-231 cells was in the range of 0.32 to 0.80 for p-Ser529 p65 and 0.41 to 0.73 for p-Ser129 Akt1, whereas in MCF-7 cells it was in the range of 0.33 to 0.78 for p-Ser529 p65 and 0.82 to 1.23 for p-Ser129 Akt1, respectively. The lowest phosphorylation levels of the tested proteins were detected in MDA-MB-231 cells for compound 6b with the relative level of 0.41 for Ser129 Akt1 as well as for compound 6c with the relative level of 0.32 for p-Ser529 p65. Among the tested proteins, the lowest extent of phosphorylation in MCF-7 cells was detected for 6b with the relative level of 0.33 for p-Ser529 p65, and for 6a with the relative level of 0.82 for Ser129 Akt1.
The MCF-7 cells growing exponentially were seeded at 4.8 × 10^5 cells in 6-cm-diameter plates. Subsequently, compounds were added in a final concentration of 0.5% DMSO. […] The protein concentration was determined using Bradford assay. […]
For densitometry, immunoblots were quantified using the Fiji distribution of the ImageJ 1.52a software (National Institutes of Health, Bethesda, MD, USA, and the University of Wisconsin, Madison, WI, USA). […]

[6] = tested on: MCF-7 cells; assay: Annexin V-FITC/PI flow cytometry, MCF-7; format: cell-based, human; conditions: MCF-7, 72-h treatment, compound at its EC50
Procedure: Additionally, assaying annexin V-binding to phosphatidylserine by means of flow cytometry confirmed that derivatives 3c and 6a–c induced apoptosis in both cell lines (Figure 9, Figure S3).
as §1

Sequence of PIM1 (P11309 whole entry, species assumed): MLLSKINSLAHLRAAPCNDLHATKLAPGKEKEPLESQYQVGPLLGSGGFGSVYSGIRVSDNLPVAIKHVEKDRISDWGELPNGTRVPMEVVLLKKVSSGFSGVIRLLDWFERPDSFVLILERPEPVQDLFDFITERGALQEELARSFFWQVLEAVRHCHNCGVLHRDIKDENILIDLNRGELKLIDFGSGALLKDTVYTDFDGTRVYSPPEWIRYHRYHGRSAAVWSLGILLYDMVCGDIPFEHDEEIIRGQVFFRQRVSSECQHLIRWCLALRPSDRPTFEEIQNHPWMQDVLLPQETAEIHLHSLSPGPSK
Sequence of human CK2 catalytic subunit (CK2α) (P68400 whole entry): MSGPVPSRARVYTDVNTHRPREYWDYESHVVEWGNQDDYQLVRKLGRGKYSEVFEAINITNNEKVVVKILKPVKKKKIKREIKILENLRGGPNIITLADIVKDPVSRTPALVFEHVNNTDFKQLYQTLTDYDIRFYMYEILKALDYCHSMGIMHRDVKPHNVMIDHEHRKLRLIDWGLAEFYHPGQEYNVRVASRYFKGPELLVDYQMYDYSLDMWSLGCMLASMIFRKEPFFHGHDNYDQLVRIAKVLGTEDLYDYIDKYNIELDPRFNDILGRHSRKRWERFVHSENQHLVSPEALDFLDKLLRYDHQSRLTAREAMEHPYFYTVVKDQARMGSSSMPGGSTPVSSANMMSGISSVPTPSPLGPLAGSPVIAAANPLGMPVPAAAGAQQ

remaining activity at 5 µM [1] [%] | remaining activity at 10 µM [1] [%] | remaining activity at 5 µM [2] [%] | remaining activity at 10 µM [2] [%] | Structure (SMILES) | apoptotic cells ([3]; MDA-MB-231, 24 h treatment) [%] | apoptotic cells ([3]; MDA-MB-231, 72 h treatment) [%] | cells in G1 [4] [%] | cells in G2M [4] [%] | cells in S [4] [%] | relative level of p-Ser129 Akt1 [5] | apoptotic cells (early and late apoptosis) [6] [%]
86.1 ± 4.2 | 79.2 ± 7.6 | 99.1 ± 15.7 | 95.4 ± 4 | CCCCCCCC(=O)OCCCn1cnc2c(Br)c(Br)c(Br)c(Br)c21 [Compound 3c, 3-(4,5,6,7-Tetrabromo-1H-benzimidazol-1-yl)propyl octanoate] | 32.5 | 50.5 | 59.4 | 11.0 | 29.6 | – | –
76.8 ± 1.9 | 74.3 ± 0.1 | 62.4 ± 8.3 | 46.4 ± 2.7 | CCCCCC(=O)OCCCn1c(C)nc2c(Br)c(Br)c(Br)c(Br)c21 [Compound 6b, (4,5,6,7-Tetrabromo-2-methyl-1H-benzimidazol-1-yl)propyl hexanoate] | 31.5 | 49 | 50.1 | 19.9 | 30.0 | 0.41 | 57.5
